B1: alpha-2-antiplasmin (protein)
chain: NQEQVSPLTLLKLGNQEPGGQTALKSPPGVCSRDPTPEQTHRLARAMMAFTADLFSLVAQTSTCPNLILSPLSVALALSHLALGAQNHTLQRLQQVLHAGSGPCLPHLLSRLCQDLGPGAFRLAARMYLQKGFPIKEDFLEQSEQLFGAKPVSLTGKQEDDLANINQWVKEATEGKIQEFLSGLPEDTVLLLLNAIHFQGFWRNKFDPSLTQRDSFHLDEQFTVPVEMMQARTYPLRWFLLEQPEIQVAHFPFKNNMSFVVLVPTHFEWNVSQVLANLSWDTLHPPLVWERPTKVRLPKLYLKHQMDLVATLSQLGLQELFQAPDLRGISEQSLVVSGVQHQSTLELSEVGVEAAAATSIAMSRMSLSSFSVNRPFLFFIFEDTTGLPLFVGSVRNPNPSAPRELKEQQDSPGNKDFLQSLKGFPRGDKLFGPDLKLVPPMEEDYPQFGSPK

Test system: whole blood clots
Test: Whole blood clot lysis induced by tPA
Assay type: cell-based, human
Conditions: for inhibition of clot lysis at high concentrations: up to 1,000 nM
Method: Whole blood clots were formed from human blood collected from healthy donors. Halo-shaped clots were generated by mixing whole blood with 15% of a mixture containing recombinant tissue factor supplemented with synthetic phospholipids Dade Innovin, Siemens Germany and 67 mM CaCl2 in HBS at 1:4 ratio. The plate was sealed and incubated at 37° C. for 60 min before use.
Clot lysis was induced by the addition of tPA to 7 nM and antibodies or Plm inhibitors at the following concentrations: 0-312.5 nM B10; 0-1000 nM α2AP; 0-1000 nM aprotinin; 0-7.5 mM TXA. Clot lysis leads to an […] of turbidity and was monitored at OD610 nm using a plate reader.
The time required to achieve 50% clot lysis was used for IC50 calculation. […] B10 was more than 180-fold more efficacious than TXA (not shown).

| Molecule | concentration of total inhibition of clot lysis (7 nM tPA, data not shown) | effect on clot lysis (concentration up to 100 μM) | inhibition of clot lysis at high concentrations |
| --- | --- | --- | --- |
| NC[C@H]1CC[C@H](C(=O)O)CC1 [TXA, tranexamic acid, reference compound] | ≥ 300 µM | delayed clot lysis | – |
| Aprotinin [reference compound] | – | – | only partially inhibit clot lysis |
| B1 | – | – | only partially inhibit clot lysis |

Source: patent publication US12686727B2, “Antibodies for binding plasmin” (MONASH UNIVERSITY, priority 2019, dated 2026)
